{"source": "patent US20240199572A1", "about": "“COMPOUNDS, COMPOSITIONS, AND METHODS FOR TREATING TYPE 2 DIABETES AND DEMENTIA” (THE BOARD OF TRUSTEES OF THE UNIVERSITY OF ILLINOIS, priority 2021, published 2024)", "key": {"[1]": {"system": "SREBF1 mRNA", "assay": "SREBF1 mRNA - HepG2 (qRT-PCR)", "assay_type": "cell-based, human", "description": "(§1) qRT-PCR. For cell samples, treated cells were lysed with RLT plus lysis buffer (Qiagen). RNA was isolated with Qiagen RNEASY® Plus columns per manufacturer instructions, then reverse-transcribed to cDNA using […]® III Reverse Transcriptase (200 U/μL, Invitrogen) per supplier protocol. qPCR experiments were either performed with TAQMAN® gene expression master mix (Invitrogen) on a StepOne™ qPCR instrument or with […]® SYBR® Green SuperMix (Quanta Biosciences) on CFX Connect™ Real-Time PCR Detection System (BioRad), with fold-change quantified by ΔΔCt. For animal samples, 100 mg tissue was homogenized in 1 mL acid-guanidinium-phenol based reagent sold under the tradename TRIZOL® (Ambion), mixed vigorously in chloroform, and separated by centrifugation. Aqueous layer containing RNA was added to Qiagen RNEASY® Plus column; remaining stops were as described above for cell lysates."}, "[2]": {"system": "C57Bl/6 control mice", "assay": "C57Bl/6 control mice, daily p.o. CL2-57 for one week", "assay_type": "in vivo, mouse"}, "[3]": {"system": "ABCA1 protein", "assay": "ABCA1 protein - J774 (immunoblot)", "assay_type": "cell-based", "procedure": "In vitro Immunoblot. Cells were lysed with RIPA buffer (Sigma) containing protease/phosphatase inhibitors (Cocktails II and III, respectively, EMD Millipore). Protein was quantified by BCA assay (Thermo Fisher Scientific). Denatured proteins were separated by gel electrophoresis (NuPage™ 4-12% Bis-Tris, Invitrogen) in MOPS running buffer at 120 V for 1 hour. Proteins were transferred to PDVF membranes (iBlot2). Membrane was blocked in 5% skim milk for 1 hour, incubated with primary antibody at 4° C. overnight, washed with TBST, and then incubated with HRP-linked secondary antibody (Cell Signaling Technology) for 1 hour at room temperature. After TBST wash, membrane was imaged using SUPERSIGNAL® West Femto™ substrate (Thermo Fisher Scientific) on Azure Biosystems c400 imager. Antibodies used: Abcam ab18180 (ABCA1, RRID:AB 444302), Thermo Fisher MA5-11685 (SREBP1, RRID:AB_10984077), Invitrogen MA5-15738 (GAPDH, RRID:AB_10977387)."}, "[4]": {"target": "T1, PPARγ (Homo sapiens, UniProt P37231)", "T1 construct": "purchased Thermo Fisher Scientific", "T1 sequence (P37231 232-505 limits assumed)": "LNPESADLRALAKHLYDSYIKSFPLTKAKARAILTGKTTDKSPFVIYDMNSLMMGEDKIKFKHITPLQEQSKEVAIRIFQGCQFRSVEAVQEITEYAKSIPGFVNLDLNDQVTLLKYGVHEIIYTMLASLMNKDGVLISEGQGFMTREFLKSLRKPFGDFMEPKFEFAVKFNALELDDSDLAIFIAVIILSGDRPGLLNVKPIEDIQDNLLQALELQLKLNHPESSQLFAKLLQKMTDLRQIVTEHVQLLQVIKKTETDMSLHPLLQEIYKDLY", "assay": "LanthaScreen TR-FRET coactivator assay PPARγ (antagonism of pioglitazone)", "assay_type": "biochemical", "procedure": "TR-FRET Receptor Binding Assays. LanthaScreen” TR-FRET coactivator assay kits for LXRβ (Thermo Fisher Scientific) and PPARγ (Thermo Fisher Scientific) were performed according to manufacturer instructions using low-binding black 384-well plates and Synergy Neo2 plate reader. For the PPARγ assay, standardization was first performed with control agonist (pioglitazone), then run in two antagonist assays: dose-response of pioglitazone with or without a single concentration of CL2-57, and dose-response of CL2-57 cotreated with a single concentration (500 nM) of pioglitazone. Each compound dose was performed in quadruplicate on each plate, and each experiment was performed in triplicate."}, "[5]": {"target": "T2, LXRβ (Homo sapiens, UniProt P55055)", "T2 construct": "purchased Thermo Fisher Scientific", "T2 sequence (P55055 212-460 limits assumed)": "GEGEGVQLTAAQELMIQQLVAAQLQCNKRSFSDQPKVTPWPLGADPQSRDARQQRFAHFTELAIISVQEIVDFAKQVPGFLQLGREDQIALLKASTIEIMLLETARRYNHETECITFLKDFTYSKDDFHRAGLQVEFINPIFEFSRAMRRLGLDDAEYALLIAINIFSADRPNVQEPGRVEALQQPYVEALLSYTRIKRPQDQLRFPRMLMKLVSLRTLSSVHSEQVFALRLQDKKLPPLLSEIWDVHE", "assay": "LanthaScreen TR-FRET coactivator assay LXRβ", "assay_type": "biochemical", "conditions": "read-out: EC50, LXRβ agonism, coactivator recruitment via TR-FRET", "protocol": "TR-FRET Receptor Binding Assays. LanthaScreen” TR-FRET coactivator assay kits for LXRβ (Thermo Fisher Scientific) and PPARγ (Thermo Fisher Scientific) were performed according to manufacturer instructions using low-binding black 384-well plates and Synergy Neo2 plate reader. […] Each compound dose was performed in quadruplicate on each plate, and each experiment was performed in triplicate."}, "[6]": {"system": "J774 cells", "assay": "siRNA knockdown of LXRα/LXRβ in J774 cells", "assay_type": "cell-based", "procedure": "siRNA Knockdown. J774 cells were plated in 24-well plates in serum-containing medium, to which an additional 100 μL of medium containing 10 pmol of siRNA and 3 μL of LIPOFECTAMINE® RNAIMAX® transfection reagent (Thermo Fisher Scientific) were added. After 24 hours, serum-free medium containing 10 μM C12-57 or vehicle control was added to each well for 24 hours. Cells were lysed and analyzed per qPCR and immunoblot procedures above. siRNAs used: Thermo Fisher 188584 (Nr1h3 silencer), 186947 (Nr1h2 silencer), and AM4611 (Silencer Negative Control siRNA #1)."}, "[7]": {"system": "ABCA1", "assay": "ABCA1 firefly reporter assay in CCF-001 cells", "assay_type": "cell-based", "conditions": "ABCA1 firefly reporter assay in CCF-001 cells (Table 8)"}, "[8]": {"system": "ABCA1 mRNA", "assay": "ABCA1 mRNA - HepG2 (qRT-PCR)", "assay_type": "cell-based, human", "description": "as §1"}}, "data": [{"smiles": "CCOC(=O)c1cccc(NC(=O)c2sc(Cl)cc2S(=O)(=O)N(C)c2ccc(OCC)c(OCC)c2)c1", "note": "[CL2-57, ethyl 3-(5-chloro-3-(N-(3,4-diethoxyphenyl)-N-methylsulfamoyl)thiophene-2-carboxamido) benzoate]", "values": [{"measurement": "SREBF1 mRNA - HepG2, activity of CL2-57 (10 μM) as % of T0901317 (1 μM)", "setting": "[1]", "value": 39, "unit": "%"}, {"measurement": "Hepatic lipogenesis", "setting": "[2]; 10 mg/kg daily p.o. one week", "value": "low-magnitude increases"}, {"measurement": "Plasma TG or cholesterol compared to vehicle controls", "setting": "[2]; C57Bl/6 mice, one week daily p.o.", "value": "no changes"}, {"measurement": "ABCA1 protein - J774, activity of CL2-57 (10 μM) as % of T0901317 (1 μM)", "setting": "[3]; 10 μM", "value": 132, "unit": "%"}, {"measurement": "ABCA1 protein", "setting": "[3]; J774 macrophage cells", "value": "Increased"}, {"measurement": "Activity in PPARγ TR-FRET binding assay", "setting": "[4]", "value": "Weak competitive antagonism"}, {"measurement": "Right-shift in the TR-FRET dose-response for pioglitazone", "setting": "[4]; addition of 10 μM CL2-57, p<0.01", "value": 2.1, "unit": "fold"}, {"measurement": "TR-FRET signal reduction", "setting": "[4]; constant pioglitazone concentration, CL2-57 at concentrations ≥1 μM", "value": "20-45%"}, {"measurement": "EC50", "setting": "[5]", "value": 1300, "unit": "nM"}, {"measurement": "ABCA1 induction under LXR siRNA knockdown", "setting": "[6]; 10 μM, J774", "value": "mediated by LXRβ"}, {"measurement": "Induction of Abcg1 under LXR siRNA knockdown", "setting": "[6]; J774", "value": "reduced by LXRβ knockdown"}, {"measurement": "Induction of Slc2a1 (GLUT1) under LXR siRNA knockdown", "setting": "[6]; J774", "value": "reduced by LXRβ knockdown"}, {"measurement": "Irs1 increases under LXR siRNA knockdown", "setting": "[6]; J774", "value": "not affected by loss of either LXR isoform"}, {"measurement": "LXR target gene Apoe", "setting": "[6]; J774 cells", "value": "not significantly affected"}, {"measurement": "EC50", "setting": "[7]", "value": 817, "unit": "nM"}, {"measurement": "ABCA1 mRNA - HepG2, activity of CL2-57 (10 μM) as % of T0901317 (1 μM)", "setting": "[8]; 10 μM", "value": 60, "unit": "%"}, {"measurement": "ABCA1 mRNA", "setting": "[8]; HepG2 hepatocarcinoma cells", "value": "Increased"}]}]}
